# Test results reported in patent US20110098261A1, “TRITERPENOID-BASED COMPOUNDS USEFUL AS VIRUS INHIBITORS” (priority 2008, published 2011).
# Like-named read-outs stand apart in the source and are kept apart here.
# How the values were obtained:
# [1] = tested on: avian influenza virus KBNP-0028 (KCTC 10866BP); format: cell-based, A/chicken/Korea/SNU0028/2000(H9N2)
# [2] = tested on: chicken embryo fibroblast (CEF) cells
compound,measurement,setting,value
"C=C(C)[C@@H]1CC[C@]2(C=O)CC[C@]3(C)[C@H](CC[C@@H]4[C@@]5(C)CC[C@H](O)C(C)(C)[C@@H]5CC[C@]43C)[C@@H]12 [12B-AJ-26A, betulinic aldehyde]",Antiviral activity (in words),[1],showed antiviral activity
same,Cytotoxicity assay (absorbance),[2]; 6.25 μg/mL,0.352
same,Cytotoxicity assay (absorbance),[2]; 12.5 μg/mL,0.326
same,Cytotoxicity assay (absorbance),[2]; 25 μg/mL,0.324
same,Cytotoxicity assay (absorbance),[2]; 50 μg/mL,0.325
same,Cytotoxicity assay (absorbance),[2]; 100 μg/mL,0.434
same,Cytotoxicity assay (absorbance),[2]; 200 μg/mL,0.421
